Data from patent publication US6964959B2, “Use of a methylol-containing compound to treat tumors” (Carter Wallace, Inc., priority 1999, dated 2005).
Entries after “also recorded” stand apart in the source; their conditions may differ.

Assays:
[1] = tested on: PA-1; test: Annexin-V FITC binding (phosphotidylserine externalization), PA-1; format: cell-based, human; settings: 24 h exposure
Protocol: (§1) Three×10^5 cells were seeded in plastic tissue culture flasks. […] Control cultures received an appropriate volume of Kollidine-17P. After an additional 24 h, cells were harvested and phosphotidylserine externalization determined by assessing Annexin-V FITC binding using cytofluorometric techniques. Each bar represents the mean±SE of four determinations. **p≦0.01, ***p≦0.001
(§2) Cell membrane phosphotidylserine externalization, as a reflection of the potential induction of apoptosis, was assessed by flow cytometry methods using the ApoAlert® Annexin-V/FITC assay kit. Briefly, 1×10^6 cells were incubated for 24 h in tissue culture medium containing serum. […] Control cultures received 5% Kollidon 17PF alone. Twenty-four hours later, all cells were harvested by trypsinization. The harvested cells were resuspended in 200 μl of binding buffer and then incubated for 5-15 min in a solution containing 1 μg/ml Annexin-V FITC at room temperature in the dark. The cells were then analyzed to quantitate Annexin-V binding by cytofluorometric techniques that utilized FACScan using the ModFit LT program with statistical analysis as described above.

[2] = tested on: SKOV-3; test: Annexin-V FITC binding (phosphotidylserine externalization), SKOV-3; format: cell-based, human; settings: 24 h exposure
Protocol: as §1, §2

[3] = tested on: human and murine tumor cell lines; test: Growth inhibition, panel of selected human and murine tumor cell lines; format: cell-based; settings: 72 h; 3 d exposure; panel of 12 selected human and murine tumor cell lines; read-out: IC50s, growth inhibition across all cell lines evaluated
Protocol: (§3) One ml of this cell suspension was added to each well of a 12 well cell culture plate that contained 3 ml of appropriate media plus serum. […] Control wells received 40 μl of 5% Kollidon 17PF alone. Seventy-two hours later, all cells were harvested by trypsinization and cell number determined electronically using a Coulter Model Z1 particle counter (Coulter Corp., Miami, Fla.) to assess cell growth inhibition. Each experiment was performed in duplicate and repeated a minimum of three times.
(§4) Cells were seeded at a density of 1-5×10^4 cells in each well of a 6 well tissue culture flask. […] After three days, cells were harvested by trypsinization and cell number determined electronically. Cell growth inhibition was determined by comparison to non-Taurolidine exposed control cultures. The IC50 was calculated as the concentration required to inhibit cell number by 50%.

[4] = tested on: PA-1; test: Flow cytometry cell cycle distribution / DNA debris, PA-1; format: cell-based, human
Protocol: Three×10^5 cells were seeded in plastic tissue culture flasks. […] Control cultures received an appropriate volume of Kollidine-17P. […] The percentage of DNA debris in the sub-G0/G1 region was assessed using cytofluorometric techniques.
For flow cytometry studies, 1×10^6 PA-1, SKOV-3, or NIH-3T3 cells were incubated for 24 h in appropriate media containing serum. […] Control cultures for each cell line were incubated in media containing 40 μl of 5% Kollidon 17PF alone. Forty-eight hours later, all cells were harvested by trypsinization and prepared for cytofluorometric analysis by standard methods. For example, harvested cells were resuspended in ice cold phosphate-buffered saline at a final cell density of 2×10^6 cells/ml. The cells then were stained for 30 min at room temperature in the dark with a solution of 0.05 mg/ml propidium iodide, 0.6% Igepal, and 1% sodium citrate. Flow cytometry was performed by FACScan (Becton Dickinson, Plymouth, England) using the ModFit LT program (Becton Dickinson). Statistical analysis was performed with the Kruskal Wallis non-parametric ANOVA test followed by Dunn's multiple comparisons test using Instat.
Three×10^5 cells were seeded in plastic tissue culture flasks. […] Control cultures received an appropriate volume of Kollidine-17P. After an additional 48 h, cells were harvested, stained with propidium iodide, and cell cycle distribution assessed using cytofluorometric techniques. Each value represents the percentage of cells in the noted cell cycle phases and is the mean±SEM of three determinations.

[5] = tested on: PA-1; test: Cell growth inhibition, PA-1 ovarian tumor cells; format: cell-based; settings: Homo sapiens, PA-1, 72 h, PA-1 (ovary); 3 d exposure; cell number
Protocol: as §3, §4

[6] = tested on: human ovarian tumor cells; test: Growth of established human ovarian tumor cell colonies; format: cell-based; settings: 24-hour exposure to 50 μM; discrete colonies
Protocol: Parallel studies were carried out to assess whether disruption of cell adhesion played a role in the cytotoxic activity.

[7] = tested on: TNF; interleukins 1, 6, and 10; VEGF; TGF; test: Angiogenesis factors in patients with metastatic colon cancer; format: in vivo, human; settings: treated subjects compared to subjects receiving placebo
Protocol: Patients with metastatic colon cancer were treated with taurolidine and several factors controlling angiogenesis were measured.

[8] = tested on: activated human T-cell cultures; test: Cytotoxic and apoptotic activity in activated human T-cell cultures; format: cell-based
Excerpt: This observation was confirmed using normal (non-tumor) primary cells derived from animals, which are known to be free of tumors.

[9] = tested on: SKOV-3 human ovarian tumor xenografts; test: i.p. SKOV-3 human ovarian tumor xenografts in female nude mice; format: in vivo
Excerpt: Fourteen days following the final Taurolidine injection, mice in all groups were sacrificed and the peritoneal cavity examined for the presence of tumors. Each experimental was repeated three times and the pooled number of animals in each group ranged from 15-21.
Fourteen days following the final Taurolidine injection, mice in all groups were sacrificed, i.p. ovarian tumor xenografts removed and tumor weighed. Each experiment was repeated three times and the pooled number of animals in each group ranged from 15-21. Each bar represents the mean (±SE) tumor weight of 15-21 animals. ***p≦0.001, ****p≦0.0001.
To evaluate therapeutic effectiveness, mice received a single intraperitoneal injection of 5×10^6 SKOV-3 cells in a volume of 0.5 ml. Immediately thereafter, mice were randomly divided into treatment groups of 7 animals. […] Control animals received 1 ml injections of 5% Kollidon 17PF alone. Animals were examined daily and body weight recorded twice weekly. […] The mean tumor weight for each treatment group was calculated and statistical analysis of differences in the mean tumor weight between treatment groups employed the Student's t-test. p-values of ≦0.05 were considered significant.

[10] = tested on: HL-60 human promyelocytic cell line; test: Apoptosis induction in HL-60 cells; format: cell-based; settings: non-adherent cancer cell models
[11] = tested on: MDR-transfected glioblastoma cells; test: Cytotoxicity in MDR-transfected glioblastoma cells; settings: dose of 50 μM
Excerpt: The neoplastic cell lines used in the survey were standard tumor cell lines, e.g., PA1 human ovarian cell line, SKOV3 human ovarian cell line, HT29 human colon tumor cell line, DU145 human prostate tumor cell line, U251 human glioblastoma cell line, U251-MDR human glioblastoma cell line transfected with DNA encoding MDR, T98G human glioblastoma cell line, SP-1 human leukemia cell line, and Daudi human leukemia cell line.
Glioblastoma cells were transfected with a gene encoding multiple drug resistance (MDR).

## O=S1(=O)CCN(CN2CCS(=O)(=O)NC2)CN1 [Taurolidine, Bis-(1,1-dioxoperhydro-1,2,4-thiadiazinyl-4)methane]
[1]
  increase in Annexin-V binding (Annexin-V positive cells): 4 fold
[2]
  increase in Annexin-V binding (Annexin-V positive cells): 3 fold
[3]
  IC50: 9.6 to 34.2 µM
[4]; PA1, 24-hour exposure
  cell cycle kinetics and distribution: significantly reduced the percentage of cells in both the S- and G2/M-phases
[4]; PA-1, 48 h exposure, up to 100 μM
  effect on cell cycle distribution: little effect on the cell cycle; also recorded: little effect on cell cycle distribution
[4]; PA-1, 48 h exposure, 25-100 μM
  DNA debris in the sub-G0/G1 region: significantly increased DNA debris; also recorded: resulted in the appearance of DNA debris
[5]
  IC50: ~10 µM
[6]
  cytotoxic effect against the growth of established tumor cells: significant cytotoxic effect
[7]
  factors controlling the growth of blood vessels (TNF; interleukins 1, 6, and 10; VEGF; TGF): found to be decreased
[8]
  induction of apoptosis: did not produce cellular changes consistent with the induction of apoptosis
[9]; 20 mg/mouse/injection i.p. x 3 d starting on the day of tumor cell injection
  ascites formation: no evidence of ascites formation
[9]; 3 d 20 mg/mouse i.p. regimen, nude mice bearing i.p. human ovarian tumor xenografts
  tumor formation and growth: significant inhibition of both tumor formation and growth; also recorded: significantly inhibited tumor development and growth; also recorded: highly effective and inhibited tumor formation
[9]; single cycle initiated 5 d after tumor cell injection (established i.p. tumors)
  tumor growth: significantly inhibiting tumor growth
[9]; therapy delayed for up to 3 d after tumor cell injection
  mean tumor size in treated mice vs controls: significantly smaller than in controls
[10]
  apoptotic signalling events after exposure: activation of caspases 3, 8 and 9
[11]
  cytotoxicity: Significant cytotoxicity
